Columns and labels:
Conditions in all cases: 1 µM; inhibitor
CDK17 = CDK17 (Homo sapiens, UniProt Q00537)
EPHA1 = EPHA1 (Homo sapiens, UniProt P21709)
CDC42BPA = CDC42BPA (Homo sapiens, UniProt Q5VT25)
MAP3K11 = MAP3K11 (Homo sapiens, UniProt Q16584)
PHKG2 = PHKG2 (Homo sapiens, UniProt P15735)
RPS6KA3 = RPS6KA3 (Homo sapiens, UniProt P51812)
MEK2 = MEK2 (Homo sapiens, UniProt P36507)
MAP4K5 = MAP4K5 (Homo sapiens, UniProt Q9Y4K4)
PAK7 = PAK7 (Homo sapiens, UniProt Q9P286)
MARK4 = MARK4 (Homo sapiens, UniProt Q96L34)
LCK = LCK (Homo sapiens, UniProt P06239)
PKCb = PKCb (Homo sapiens, UniProt P05771)
PLK3 = PLK3 (Homo sapiens, UniProt Q9H4B4)
NEK3 = NEK3 (Homo sapiens, UniProt P51956)
PRK1 = PRK1 (Homo sapiens, UniProt Q16512)
STK23 = STK23 (Homo sapiens, UniProt Q9UPE1)
GRK5 = GRK5 (Homo sapiens, UniProt P34947)
CDK7 = CDK7 (Homo sapiens, UniProt P50613)
PKCi = PKCi (Homo sapiens, UniProt P41743)
PRK2 = PRK2 (Homo sapiens, UniProt Q16513)
CHK1 = CHK1 (Homo sapiens, UniProt O14757)
PIM1 = PIM1 (Homo sapiens, UniProt P11309)
PKMzeta = PKMzeta (Homo sapiens, UniProt Q05513)
PLK1 = PLK1 (Homo sapiens, UniProt P53350)
AurC = AurC (Homo sapiens, UniProt Q9UQB9)
TTBK2 = TTBK2 (Homo sapiens, UniProt Q6IQ55)
RPS6KA6 = RPS6KA6 (Homo sapiens, UniProt Q9UK32)
TEC = TEC (Homo sapiens, UniProt P42680)
ERK2 = ERK2 (Homo sapiens, UniProt P28482)
CDK20 = CDK20 (Homo sapiens, UniProt Q8IZL9)
CDK3/CycC = CDK3/CycC (Homo sapiens, UniProt Q00526)
Sequence of CDK3/CycC (Q00526 whole entry): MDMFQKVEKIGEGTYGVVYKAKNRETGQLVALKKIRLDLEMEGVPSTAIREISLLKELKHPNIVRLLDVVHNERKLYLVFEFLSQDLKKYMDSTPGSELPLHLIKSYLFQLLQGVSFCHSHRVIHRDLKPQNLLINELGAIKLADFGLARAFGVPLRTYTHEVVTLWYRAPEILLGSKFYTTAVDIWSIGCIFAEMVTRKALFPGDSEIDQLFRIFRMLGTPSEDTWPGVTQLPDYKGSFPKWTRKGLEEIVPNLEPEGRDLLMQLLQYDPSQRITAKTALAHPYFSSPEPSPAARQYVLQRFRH
Sequence of CDK3/CycC (P24863 whole entry partner): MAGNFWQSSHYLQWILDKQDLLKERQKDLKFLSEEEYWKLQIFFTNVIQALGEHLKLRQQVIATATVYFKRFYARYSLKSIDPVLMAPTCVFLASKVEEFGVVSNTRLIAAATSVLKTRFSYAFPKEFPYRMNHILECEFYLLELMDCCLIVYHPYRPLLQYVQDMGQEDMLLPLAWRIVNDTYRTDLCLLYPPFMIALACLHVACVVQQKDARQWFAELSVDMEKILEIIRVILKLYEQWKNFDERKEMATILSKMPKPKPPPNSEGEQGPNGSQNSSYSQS

Sequence of MAP3K11 (Q16584 whole entry): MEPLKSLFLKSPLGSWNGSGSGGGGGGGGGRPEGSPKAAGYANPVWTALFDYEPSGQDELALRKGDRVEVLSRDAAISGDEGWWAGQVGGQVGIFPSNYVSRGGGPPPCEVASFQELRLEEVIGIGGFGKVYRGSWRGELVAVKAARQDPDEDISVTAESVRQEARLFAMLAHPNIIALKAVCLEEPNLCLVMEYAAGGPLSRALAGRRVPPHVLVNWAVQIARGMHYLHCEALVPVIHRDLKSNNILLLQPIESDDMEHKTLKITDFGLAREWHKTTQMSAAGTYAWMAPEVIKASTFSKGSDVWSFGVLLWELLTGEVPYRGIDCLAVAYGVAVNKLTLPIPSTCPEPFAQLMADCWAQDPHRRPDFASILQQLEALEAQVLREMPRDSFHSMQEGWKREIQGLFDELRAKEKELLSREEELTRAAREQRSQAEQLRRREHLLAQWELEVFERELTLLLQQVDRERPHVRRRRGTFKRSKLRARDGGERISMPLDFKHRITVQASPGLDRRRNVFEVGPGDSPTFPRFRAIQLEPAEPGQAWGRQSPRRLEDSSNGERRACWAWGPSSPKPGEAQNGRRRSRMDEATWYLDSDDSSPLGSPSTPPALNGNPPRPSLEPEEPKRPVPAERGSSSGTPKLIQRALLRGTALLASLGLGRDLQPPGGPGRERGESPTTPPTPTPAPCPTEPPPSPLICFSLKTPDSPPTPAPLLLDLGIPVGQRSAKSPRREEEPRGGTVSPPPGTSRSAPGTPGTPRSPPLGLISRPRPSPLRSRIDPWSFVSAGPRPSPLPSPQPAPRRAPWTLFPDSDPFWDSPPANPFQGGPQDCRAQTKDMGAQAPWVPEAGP
Sequence of RPS6KA6 (Q9UK32 whole entry): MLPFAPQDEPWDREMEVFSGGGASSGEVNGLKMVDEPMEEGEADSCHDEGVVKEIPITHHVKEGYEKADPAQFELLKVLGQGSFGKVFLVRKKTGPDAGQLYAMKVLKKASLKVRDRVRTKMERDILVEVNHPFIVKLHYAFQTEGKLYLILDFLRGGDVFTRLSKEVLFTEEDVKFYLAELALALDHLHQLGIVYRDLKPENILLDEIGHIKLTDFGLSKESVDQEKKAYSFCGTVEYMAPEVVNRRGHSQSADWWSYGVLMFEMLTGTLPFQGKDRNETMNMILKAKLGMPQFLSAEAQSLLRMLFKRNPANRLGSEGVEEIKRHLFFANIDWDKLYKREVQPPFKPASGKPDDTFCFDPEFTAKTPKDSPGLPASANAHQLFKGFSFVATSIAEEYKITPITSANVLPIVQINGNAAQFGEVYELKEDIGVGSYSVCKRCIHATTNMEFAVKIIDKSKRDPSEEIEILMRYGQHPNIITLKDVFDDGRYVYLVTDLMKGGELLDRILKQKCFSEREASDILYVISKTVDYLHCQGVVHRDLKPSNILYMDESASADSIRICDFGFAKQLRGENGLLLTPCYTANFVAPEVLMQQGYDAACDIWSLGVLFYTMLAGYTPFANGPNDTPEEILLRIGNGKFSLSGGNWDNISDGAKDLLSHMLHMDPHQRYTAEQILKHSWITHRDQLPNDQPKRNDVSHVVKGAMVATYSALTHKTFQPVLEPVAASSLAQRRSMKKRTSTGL
Sequence of PAK7 (Q9P286 whole entry): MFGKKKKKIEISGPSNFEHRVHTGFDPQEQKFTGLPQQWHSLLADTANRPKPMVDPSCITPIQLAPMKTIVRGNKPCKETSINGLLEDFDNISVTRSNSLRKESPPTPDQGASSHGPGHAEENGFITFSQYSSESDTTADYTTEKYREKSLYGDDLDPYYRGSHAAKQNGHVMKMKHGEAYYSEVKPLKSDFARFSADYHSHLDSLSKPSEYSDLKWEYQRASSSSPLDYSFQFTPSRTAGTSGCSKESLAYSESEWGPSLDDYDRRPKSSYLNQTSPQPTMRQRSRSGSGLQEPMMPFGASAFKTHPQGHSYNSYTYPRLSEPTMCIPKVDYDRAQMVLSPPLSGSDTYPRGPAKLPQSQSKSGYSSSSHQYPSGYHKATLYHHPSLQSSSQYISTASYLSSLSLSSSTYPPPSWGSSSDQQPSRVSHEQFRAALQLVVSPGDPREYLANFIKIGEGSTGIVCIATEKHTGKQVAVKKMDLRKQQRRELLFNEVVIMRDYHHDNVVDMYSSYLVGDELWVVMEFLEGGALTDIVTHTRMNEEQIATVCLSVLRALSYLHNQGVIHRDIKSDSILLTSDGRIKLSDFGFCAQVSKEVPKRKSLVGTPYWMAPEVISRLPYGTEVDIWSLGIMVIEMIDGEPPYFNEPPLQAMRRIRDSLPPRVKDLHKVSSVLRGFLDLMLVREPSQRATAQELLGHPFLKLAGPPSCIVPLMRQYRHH
Sequence of GRK5 (P34947 whole entry): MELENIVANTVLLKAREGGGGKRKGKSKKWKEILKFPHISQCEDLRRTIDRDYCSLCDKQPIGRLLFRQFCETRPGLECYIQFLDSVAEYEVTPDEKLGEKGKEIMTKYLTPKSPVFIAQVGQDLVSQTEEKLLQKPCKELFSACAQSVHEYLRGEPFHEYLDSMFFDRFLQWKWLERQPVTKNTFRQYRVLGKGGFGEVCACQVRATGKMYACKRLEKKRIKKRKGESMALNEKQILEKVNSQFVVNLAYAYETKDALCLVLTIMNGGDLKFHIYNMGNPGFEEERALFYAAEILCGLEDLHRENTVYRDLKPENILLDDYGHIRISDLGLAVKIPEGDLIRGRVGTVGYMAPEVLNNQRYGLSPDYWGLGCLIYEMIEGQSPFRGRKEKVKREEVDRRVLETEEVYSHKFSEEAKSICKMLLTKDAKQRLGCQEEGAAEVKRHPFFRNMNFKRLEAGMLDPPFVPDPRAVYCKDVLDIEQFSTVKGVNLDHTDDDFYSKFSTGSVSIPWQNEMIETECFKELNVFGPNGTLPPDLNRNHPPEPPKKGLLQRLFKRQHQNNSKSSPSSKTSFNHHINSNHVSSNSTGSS
Sequence of PKMzeta (Q05513 whole entry): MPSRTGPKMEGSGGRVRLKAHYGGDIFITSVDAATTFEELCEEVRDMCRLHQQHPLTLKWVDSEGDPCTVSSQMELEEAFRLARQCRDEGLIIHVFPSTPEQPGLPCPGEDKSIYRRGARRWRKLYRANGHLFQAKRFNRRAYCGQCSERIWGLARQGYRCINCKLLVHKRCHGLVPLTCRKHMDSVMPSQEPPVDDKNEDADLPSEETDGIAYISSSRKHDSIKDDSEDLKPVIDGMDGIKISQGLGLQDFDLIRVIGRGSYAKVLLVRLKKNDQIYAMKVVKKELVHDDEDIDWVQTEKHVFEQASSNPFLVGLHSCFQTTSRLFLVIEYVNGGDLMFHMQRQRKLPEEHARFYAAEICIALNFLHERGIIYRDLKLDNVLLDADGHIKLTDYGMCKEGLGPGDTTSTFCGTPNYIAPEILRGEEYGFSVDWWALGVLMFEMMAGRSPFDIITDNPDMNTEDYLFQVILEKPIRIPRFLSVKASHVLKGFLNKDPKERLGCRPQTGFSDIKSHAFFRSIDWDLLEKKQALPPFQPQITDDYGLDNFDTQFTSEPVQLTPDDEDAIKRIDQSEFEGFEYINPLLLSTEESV
Sequence of CDK7 (P50613 whole entry): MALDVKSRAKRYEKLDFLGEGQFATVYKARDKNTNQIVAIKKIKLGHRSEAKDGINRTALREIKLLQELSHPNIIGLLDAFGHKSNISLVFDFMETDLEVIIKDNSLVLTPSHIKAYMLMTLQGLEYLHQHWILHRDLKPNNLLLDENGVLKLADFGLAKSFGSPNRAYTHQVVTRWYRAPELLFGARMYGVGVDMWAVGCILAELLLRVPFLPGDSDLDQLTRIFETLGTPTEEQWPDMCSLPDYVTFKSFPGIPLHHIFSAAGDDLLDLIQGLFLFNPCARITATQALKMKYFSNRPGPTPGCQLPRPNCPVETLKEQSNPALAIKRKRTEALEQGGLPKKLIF
Sequence of ERK2 (P28482 whole entry): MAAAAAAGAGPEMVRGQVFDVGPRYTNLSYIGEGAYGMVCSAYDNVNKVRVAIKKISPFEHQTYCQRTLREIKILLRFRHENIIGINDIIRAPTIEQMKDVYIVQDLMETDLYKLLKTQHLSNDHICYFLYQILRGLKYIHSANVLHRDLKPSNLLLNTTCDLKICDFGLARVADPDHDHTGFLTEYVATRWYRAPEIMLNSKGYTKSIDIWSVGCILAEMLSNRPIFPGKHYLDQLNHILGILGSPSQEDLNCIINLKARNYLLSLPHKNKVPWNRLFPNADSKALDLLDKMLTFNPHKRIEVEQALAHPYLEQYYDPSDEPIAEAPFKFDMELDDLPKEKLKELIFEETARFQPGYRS

Compound: O=C1NCCCCCNc2nc(c3ccccc3n2)Nc2cc1[nH]n2 [21c, (Z)-3^1H-2,5,11-triaza-1(4,2)-quinazolina-3(3,5)-pyrazolacycloundecaphan-4-one]
- 21c Remaining activity, percent of control [%] (CDK17): 70.9%
- 21c Remaining activity, percent of control [%] (EPHA1): 99.3%
- 21c Remaining activity, percent of control [%] (CDC42BPA): 107.0%
- 21c Remaining activity, percent of control [%] (MAP3K11): 45.8%
- 21c Remaining activity, percent of control [%] (PHKG2): 98.0%
- 21c Remaining activity, percent of control [%] (RPS6KA3): 87.3%
- 21c Remaining activity, percent of control [%] (MEK2): 90.2%
- 21c Remaining activity, percent of control [%] (MAP4K5): 78.8%
- 21c Remaining activity, percent of control [%] (PAK7): 87.1%
- 21c Remaining activity, percent of control [%] (MARK4): 100.1%
- 21c Remaining activity, percent of control [%] (LCK): 92.0%
- 21c Remaining activity, percent of control [%] (PKCb): 82.5%
- 21c Remaining activity, percent of control [%] (PLK3): 102.7%
- 21c Remaining activity, percent of control [%] (NEK3): 94.1%
- 21c Remaining activity, percent of control [%] (PRK1): 91.8%
- 21c Remaining activity, percent of control [%] (STK23): 80.7%
- 21c Remaining activity, percent of control [%] (GRK5): 103.8%
- 21c Remaining activity, percent of control [%] (CDK7): 112.5%
- 21c Remaining activity, percent of control [%] (PKCi): 83.5%
- 21c Remaining activity, percent of control [%] (PRK2): 89.5%
- 21c Remaining activity, percent of control [%] (CHK1): 112.0%
- 21c Remaining activity, percent of control [%] (PIM1): 101.3%
- 21c Remaining activity, percent of control [%] (PKMzeta): 96.2%
- 21c Remaining activity, percent of control [%] (PLK1): 89.3%
- 21c Remaining activity, percent of control [%] (AurC): 90.2%
- 21c Remaining activity, percent of control [%] (TTBK2): 109.9%
- 21c Remaining activity, percent of control [%] (RPS6KA6): 73.5%
- 21c Remaining activity, percent of control [%] (TEC): 91.4%
- 21c Remaining activity, percent of control [%] (ERK2): 90.7%
- 21c Remaining activity, percent of control [%] (CDK20): 84.4%
- 21c Remaining activity, percent of control [%] (CDK3/CycC): 87.0%
